Assay results published in patent US20230265247A1, “PROCESS FOR PREPARING POLYIMIDES” (Technische Universität Wien, priority 2020, published 2023).

assay: not given; settings: according to perflavory.com; cited from earlier work

Row | Compound | water solubility of the diamine
1 | CC1CC(CC2CCC(N)C(C)C2)CCC1N (stereo not shown) [4,4′-methylene-bis(2-methylcyclohexylamine)] | around 88 mg/l

same assay, conditions: cited in Wikipedia; cited from earlier work

Row | Compound | water solubility of the diamine
2 | NC1CCC(CC2CCC(N)CC2)CC1 (stereo not shown) [4,4′-methylene-bis(cyclohexylamine)] | about 4 g/l

assay: not given; settings: salts of 1,2,3,4-butanetetracarboxylic acid; 1 ml distilled water with around 20 to 40% by weight of salt, stirred 15 minutes

Row | Compound | Salt is water-soluble
3 | Nc1n[nH]c(N)n1 [Example V38] | no
4 | Nc1ccc(Cc2ccc(N)cc2)cc1 [Example V39] | no
5 | Tricyclo[5.2.1.0^2,6]decane-3(4),8(9)-bis(methanammonium)-dihydrogen-1,2,3,4-butane-tetracarboxylate [Example B20] | yes

same assay, conditions: salts of 1,2,3,4-cyclobutanetetracarboxylic acid; 1 ml distilled water with around 20 to 40% by weight of salt, stirred 15 minutes

Row | Compound | Salt is water-soluble
6 | NCC1CC2CC1CC2CN.O=C(O)C1C(C(=O)O)C(C(=O)O)C1C(=O)O (stereo not shown) [Example B21, Norbornane bis(methylammonium)-dihydrogen-1,2,3,4-cyclobutanetetracarboxylate] | yes
7 | NCCCCN.O=C(O)C1C(C(=O)O)C(C(=O)O)C1C(=O)O (stereo not shown) [Example V42] | yes
8 | CC1(C)CC(N)CC(C)(CN)C1.O=C(O)C1C(C(=O)O)C(C(=O)O)C1C(=O)O (stereo not shown) [Example V54] | yes
9 | NCc1cccc(CN)c1.O=C(O)C1C(C(=O)O)C(C(=O)O)C1C(=O)O (stereo not shown) [Example V55] | yes
10 | Tricyclo[5.2.1.0^2,6]decane-3(4),8(9)-bis(methanammonium)-dihydrogen-1,2,3,4-cyclobutanetetracarboxylate [Example B22] | yes

same assay, conditions: salts of 1,2,3,4-cyclopentanetetracarboxylic acid; 1 ml distilled water with around 20 to 40% by weight of salt, stirred 15 minutes

Row | Compound | Salt is water-soluble
11 | NCC1CC2CC1CC2CN.O=C(O)C1CC(C(=O)O)C(C(=O)O)C1C(=O)O (stereo not shown) [Example B23, Norbornane bis(methylammonium)-dihydrogen-1,2,3,4-cyclopentanetetracarboxylate] | yes
12 | NCCCCN.O=C(O)C1CC(C(=O)O)C(C(=O)O)C1C(=O)O (stereo not shown) [Example V57] | yes
13 | CC(CN)CCCN.O=C(O)C1CC(C(=O)O)C(C(=O)O)C1C(=O)O (stereo not shown) [Example V60] | yes
14 | NCCCCCCCCCN.O=C(O)C1CC(C(=O)O)C(C(=O)O)C1C(=O)O (stereo not shown) [Example V63] | yes
15 | CC1(C)CC(N)CC(C)(CN)C1.O=C(O)C1CC(C(=O)O)C(C(=O)O)C1C(=O)O (stereo not shown) [Example V69] | yes
16 | Tricyclo[5.2.1.0^2,6]decane-3(4),8(9)-bis(methanammonium)-dihydrogen-1,2,3,4-cyclopentanetetracarboxylate [Example B24] | yes

same assay, conditions: salts of 1,2,4,5-cyclohexanetetracarboxylic acid; 1 ml distilled water with around 20 to 40% by weight of salt, stirred 15 minutes

Row | Compound | Salt is water-soluble
17 | NCCCCN.O=C(O)C1CC(C(=O)O)C(C(=O)O)CC1C(=O)O (stereo not shown) [Example V72] | yes
18 | NCCCCCCCCCN.O=C(O)C1CC(C(=O)O)C(C(=O)O)CC1C(=O)O (stereo not shown) [Example V78] | yes
19 | CC1(C)CC(N)CC(C)(CN)C1.O=C(O)C1CC(C(=O)O)C(C(=O)O)CC1C(=O)O (stereo not shown) [Example V84] | yes
20 | NCc1cccc(CN)c1 [Example V85] | yes
21 | Norbornane bis(methylammonium)-dihydrogen-1,2,4,5-cyclohexanetetracarboxylate [Example B25] | yes
22 | Tricyclo[5.2.1.0^2,6]decane-3(4),8(9)-bis(methanammonium)-dihydrogen-1,2,4,5-cyclohexanetetracarboxylate [Example B26] | yes

same assay, conditions: salts of 3,3′,4,4′-benzophenonetetracarboxylic acid; 1 ml distilled water with around 20 to 40% by weight of salt, stirred 15 minutes

Row | Compound | Salt is water-soluble
23 | NCCCCN.O=C(c1ccc(C(=O)O)c(C(=O)O)c1)c1ccc(C(=O)O)c(C(=O)O)c1 [Example V86] | no
24 | CC(C)(CN)CN.O=C(c1ccc(C(=O)O)c(C(=O)O)c1)c1ccc(C(=O)O)c(C(=O)O)c1 [Example V88] | yes
25 | NCCCCCCCCCCCCN.O=C(c1ccc(C(=O)O)c(C(=O)O)c1)c1ccc(C(=O)O)c(C(=O)O)c1 [Example V94] | no
26 | CC1(C)CC(N)CC(C)(CN)C1.O=C(c1ccc(C(=O)O)c(C(=O)O)c1)c1ccc(C(=O)O)c(C(=O)O)c1 [Example V95] | yes
27 | CC1CC(CC2CCC(N)C(C)C2)CCC1N.O=C(c1ccc(C(=O)O)c(C(=O)O)c1)c1ccc(C(=O)O)c(C(=O)O)c1 [Example V97] | yes
28 | Nc1cccc(N)n1 [Example V104] | no
29 | Norbornane bis(methylammonium)-dihydrogen-3,3′,4,4′-benzophenonetetracarboxylate [Example B27] | yes
30 | Tricyclo[5.2.1.0^2,6]decane-3(4),8(9)-bis(methanammonium)-dihydrogen-3,3′,4,4′-benzophenonetetracarboxylate [Example B28] | yes

same assay, conditions: salts of tetrahydrofuran-2,3,4,5-tetracarboxylic acid; 1 ml distilled water with around 20 to 40% by weight of salt, stirred 15 minutes; no = no clear solution

Row | Compound | Salt is water-soluble
31 | NCCCCN.O=C(O)C1OC(C(=O)O)C(C(=O)O)C1C(=O)O (stereo not shown) [Example B2, Butane-1,4-diammonium-dihydrogen-tetrahydrofuran-2,3,4,5-tetracarboxylate] | yes
32 | NCCCCCN.O=C(O)C1OC(C(=O)O)C(C(=O)O)C1C(=O)O (stereo not shown) [Example B3, Pentane-1,5-diammonium-dihydrogen-tetrahydrofuran-2,3,4,5-tetracarboxylate] | yes
33 | CC(C)(CN)CN.O=C(O)C1OC(C(=O)O)C(C(=O)O)C1C(=O)O (stereo not shown) [Example B4, 2,2-Dimethylpropane-1,3-diammonium-dihydrogen-tetrahydrofuran-2,3,4,5-tetracarboxylate] | yes
34 | CC(CN)CCCN.O=C(O)C1OC(C(=O)O)C(C(=O)O)C1C(=O)O (stereo not shown) [Example B6, 2-Methylpentane-1,5-diammonium-dihydrogen-tetrahydrofuran-2,3,4,5-tetracarboxylate] | yes
35 | NCCCCCCCN.O=C(O)C1OC(C(=O)O)C(C(=O)O)C1C(=O)O (stereo not shown) [Example B7, Heptane-1,7-diammonium-dihydrogen-tetrahydrofuran-2,3,4,5-tetracarboxylate] | yes
36 | NCCCCCCCCN.O=C(O)C1OC(C(=O)O)C(C(=O)O)C1C(=O)O (stereo not shown) [Example B8, Octane-1,8-diammonium-dihydrogen-tetrahydrofuran-2,3,4,5-tetracarboxylate] | yes
37 | NCCCCCCCCCN.O=C(O)C1OC(C(=O)O)C(C(=O)O)C1C(=O)O (stereo not shown) [Example B9, Nonane-1,9-diammonium-dihydrogen-tetrahydrofuran-2,3,4,5-tetracarboxylate] | yes
38 | NC1CCCC(N)C1.O=C(O)C1OC(C(=O)O)C(C(=O)O)C1C(=O)O (stereo not shown) [Example B11, Cyclohexane-1,3-diammonium-dihydrogen-tetrahydrofuran-2,3,4,5-tetracarboxylate] | yes
39 | NC1CCC(N)CC1.O=C(O)C1OC(C(=O)O)C(C(=O)O)C1C(=O)O (stereo not shown) [Example B12, Cyclohexane-1,4-diammonium-dihydrogen-tetrahydrofuran-2,3,4,5-tetracarboxylate] | yes
40 | NCC1CCCC(CN)C1.O=C(O)C1OC(C(=O)O)C(C(=O)O)C1C(=O)O (stereo not shown) [Example B13, Cyclohexane-1,3-bis(methanammonium)-dihydrogen-tetrahydrofuran-2,3,4,5-tetracarboxylate] | yes
41 | NCC1CCC(CN)CC1.O=C(O)C1OC(C(=O)O)C(C(=O)O)C1C(=O)O (stereo not shown) [Example B14, Cyclohexane-1,4-bis(methanammonium)-dihydrogen-tetrahydrofuran-2,3,4,5-tetracarboxylate] | yes
42 | CC1(C)CC(N)CC(C)(CN)C1.O=C(O)C1OC(C(=O)O)C(C(=O)O)C1C(=O)O (stereo not shown) [Example B16, Isophorone diammonium-dihydrogen-tetrahydrofuran-2,3,4,5-tetracarboxylate] | yes
43 | CC1CC(CC2CCC(N)C(C)C2)CCC1N.O=C(O)C1OC(C(=O)O)C(C(=O)O)C1C(=O)O (stereo not shown) [Example B18, 4,4′-Methylene-bis(2-methylcyclohexylammonium)-dihydrogen-tetrahydrofuran-2,3,4,5-tetracarboxylate] | yes
44 | NC1CCC(CC2CCC(N)CC2)CC1.O=C(O)C1OC(C(=O)O)C(C(=O)O)C1C(=O)O (stereo not shown) [Example V2] | no
45 | Cc1ccc(N)cc1N [Example V7] | no
46 | Nc1cccc(N)n1.O=C(O)C1OC(C(=O)O)C(C(=O)O)C1C(=O)O (stereo not shown) [Example V9] | no
47 | Nc1ccc(Cc2ccc(N)cc2)cc1.O=C(O)C1OC(C(=O)O)C(C(=O)O)C1C(=O)O (stereo not shown) [Example V11] | no
48 | Cc1cc(-c2ccc(N)c(C)c2)ccc1N [Example V12] | no

assay: Water solubility of the diamines, literature values; format: physicochemical; settings: ratio of cited solubilities

Row | Compound | water solubility less by a factor, versus 4,4′-methylene-bis(cyclohexylamine)
49 | CC1CC(CC2CCC(N)C(C)C2)CCC1N (stereo not shown) [4,4′-methylene-bis(2-methylcyclohexylamine)] | 45
